Results: patent US9682976B2, “Protein kinase C inhibitors and uses thereof” (Rigel Pharmaceuticals, Inc., priority 2012, dated 2017)
Counter-ions that a name gives are not always drawn.

System: PKC mediated IL-2 production
Assay: IL-2 ELISA, human primary T cell, anti CD3+CD28+
Type: cell-based
Conditions: human primary T cells stimulated with αCD3 and αCD28, 24 hours
Method in brief: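 Human peripheral blood T cells, pre-expanded with αCD3/αCD28 and IL-2 and then washed free of IL-2, were pre-incubated with compound for 1 h at 37° C. They were then stimulated on plates coated with […] αCD3 and 5 μg/ml αCD28, or with 0.5 ng/ml PMA plus 0.1 uM ionomycin in the counter assay. IL-2 in supernatants was measured by ELISA after 24 h.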

**Q.** Which EC50 (Homo sapiens, T-cell, 24 h) does the source give for C[S+]([O-])c1nnnn1-c1cccc(Nc2ncc(F)c(N[C@@H]3C[C@@H]4CCCN4C(C)(C)C3)n2)c1 (stereo partly drawn) [Compound 270, 5-fluoro-N4-((7R,8aS)-octahydro-5,5-dimethylindolizin-7-yl)-N2-(3-(5-(methylsulfinyl)-1H-tetrazol-1-yl)phenyl)pyrimidine-2,4-diamine] here?
**A.** 500 to 1000 nM

**Q.** Which EC50 does the source give for COc1cc(Nc2ncc(F)c(N[C@@H]3C[C@@H]4CCCN4C(C)(C)C3)n2)cc(-n2nnnc2C)c1 (single isomer, unassigned) [Compound 14, (R/S, S/R, R/R, S/S)-5-fluoro-N4-(octahydro-5,5-dimethylindolizin-7-yl)N2-(3-methoxy-5-(5-methyl-1H-tetrazol-1-yl)phenyl)pyrimidine-2,4-diamine] here?
**A.** < 100 nM

**Q.** For Cn1nc2n(c1=O)-c1cc(Nc3ncc(F)c(N[C@@H]4C[C@@H]5CCCN5C(C)(C)C4)n3)ccc1OC2(CO)CO[Si](C)(C)C(C)(C)C (stereo partly drawn) [Compound 287, 5-fluoro-N2-(1H-2,4-dihydron-4-(hydroxymethyl)-4-(((1,1-dimethylethyl)dimethylsilyl)oxymethyl)-2-methyl-[1,2,4]triazolo[3,4-c][1,4]benzoxazin-1-one-8-yl)-N4-((7R,8aS)-octahydro-5,5-dimethylindolizin-7-yl)pyrimidine-2,4-diamine], which EC50 (T-cell) is on record?
**A.** 1000 to 10000 nM

**Q.** How did the EC50 (Homo sapiens, T-cell, 24 h) turn out when CC1(C)CC[C@H]2C[C@@H](Nc3nc(Nc4ccc(OC5CC(O)C5)c(C#N)c4)ncc3F)CCN21 (stereo partly drawn) [Compound 304] was run?
**A.** 100 to 500 nM

**Q.** COc1ccc(Nc2ncc(Cl)c(N[C@@H]3C[C@@H]4CCCN4C(C)(C)C3)n2)cc1-n1nnnc1C [Compound 151, 5-chloro-N4-((7R,8aS)-5,5-dimethyloctahydroindolizin-7-yl)-N2-(4-methoxy-3-(5-methyl-1H-tetrazol-1-yl)phenyl)pyrimidine-2,4-diamine] was tested. Which EC50 (Homo sapiens, T-cell, 24 h) did it give?
**A.** < 100 nM

**Q.** For CC(C)N1CCC(Oc2ccc(Nc3ncc(F)c(NC4CC5CCCN5C(C)(C)C4)n3)cc2OC(F)F)CC1 (stereo not drawn) [Compound 6, (R/S, S/R, R/R, S/S)-N^2-(4-(1-isopropylpiperidin-4-yloxy)-3-(difluoromethoxy)phenyl)-5-fluoro-N^4-(octahydro-5,5-dimethylindolizin-7-yl)pyrimidine-2,4-diamine], which EC50 is on record?
**A.** 100 to 500 nM

**Q.** CC1(C)C[C@H](Nc2nc(Nc3ccc(F)c(-n4nnnc4C4CC4)c3)ncc2Cl)C[C@@H]2CCCN21 [Compound 163, 5-chloro-N2-(3-(5-cyclopropyl-1H-tetrazol-1-yl)-4-fluorophenyl)-N4-((7R,8aS)-5,5-dimethyloctahydroindolizin-7-yl)pyrimidine-2,4-diamine] was tested. Which EC50 (Homo sapiens, T-cell, 24 h) did it give?
**A.** < 100 nM

**Q.** For CC1(C)CC[C@H]2C[C@@H](Nc3nc(Nc4ccc(OC5CC(O)C5)c(C(F)(F)F)c4)ncc3F)CCN21 (stereo partly drawn) [Compound 305, 3-(4-((4-(((7S,8aS)-3,3-Dimethyloctahydroindolizin-7-yl)amino)-5-fluoropyrimidin-2-yl)amino)-2-(trifluoromethyl)phenoxy)cyclobutan-1-ol], which EC50 (Homo sapiens, T-cell, 24 h) is on record?
**A.** 100 to 500 nM

**Q.** With CC(C)Oc1cc(F)c(Nc2ncc(F)c(N[C@@H]3C[C@@H]4CCCN4C(C)(C)C3)n2)cc1-n1nnnc1C1CC1 [Compound 257, N2-(5-(5-cyclopropyl-1H-tetrazol-1-yl)-2-fluoro-4-isopropoxyphenyl)-5-fluoro-N4-((7R,8aS)-octahydro-5,5-dimethylindolizin-7-yl)pyrimidine-2,4-diamine] as the compound, how does the EC50 (Homo sapiens, T-cell, 24 h) read?
**A.** > 10000 nM

**Q.** How did the EC50 (Homo sapiens, T-cell, 24 h) turn out when COC(=O)c1ccc(Nc2ncc(F)c(N[C@@H]3C[C@@H]4CCCN4C(C)(C)C3)n2)cc1C(F)(F)F [Compound 320] was run?
**A.** 100 to 500 nM

**Q.** How did the EC50 (Homo sapiens, T-cell, 24 h) turn out when CC1(C)CC[C@H]2C[C@@H](Nc3nc(Nc4ccc(N5CCOCC5)c(OC(F)F)c4)ncc3F)CCN21 [Compound 297] was run?
**A.** 100 to 500 nM

**Q.** For CC(=O)O[C@H]1[C@H](OC(C)=O)C(Oc2ccc(Nc3ncc(F)c(N[C@@H]4C[C@@H]5CCCN5C(C)(C)C4)n3)cc2C#N)OC[C@H]1OC(C)=O (stereo partly drawn) [Compound 197, (3S,4R,5R)-2-(2-cyano-4-((4-(((7R,8aS)-5,5-dimethyloctahydroindolizin-7-yl)amino)-5-fluoropyrimidin-2-yl)amino)phenoxy)tetrahydro-2H-pyran-3,4,5-triyl triacetate], which EC50 (Homo sapiens, T-cell, 24 h) is on record?
**A.** 100 to 500 nM

**Q.** With CC1(C)C[C@H](Nc2nc(Nc3ccc(OCCCO)c(-n4cnnn4)c3)ncc2F)C[C@@H]2CCCN21 [Compound 215, 3-(4-((4-(((7R,8aS)-5,5-dimethyloctahydroindolizin-7-yl)amino)-5-fluoropyrimidin-2-yl)amino)-2-(1H-tetrazol-1-yl)phenoxy)propan-1-ol] as the compound, how does the EC50 (Homo sapiens, T-cell, 24 h) read?
**A.** < 100 nM

**Q.** C=Cc1cc(F)c(Nc2ncc(F)c(N[C@@H]3C[C@@H]4CCCN4C(C)(C)C3)n2)cc1-n1nnn(C)c1=O [Compound 92, 1-(5-(4-((7R,8aS)-octahydro-5,5-dimethylindolizin-7-ylamino)-5-fluoropyrimidin-2-ylamino)-4-fluoro-2-vinylphenyl)-4-methyl-1H-tetrazol-5(4H)-one] was tested. Which EC50 (Homo sapiens, T-cell, 24 h) did it give?
**A.** < 100 nM

**Q.** Which EC50 (Homo sapiens, T-cell, 24 h) does the source give for CC1(C)C[C@H](Nc2nc(Nc3ccc(NCC(O)CCl)c(C(F)(F)F)c3)ncc2F)C[C@@H]2CCCN21 (stereo partly drawn) [Compound 321, 1-(4-(4-((7R,8aS)-octahydro-5,5-dimethylindolizin-7-ylamino)-5-fluoropyrimidin-2-ylamino)-2-(trifluoromethyl)phenylamino)-3-chloropropa-2-ol] here?
**A.** 100 to 500 nM

**Q.** How did the EC50 turn out when Cn1nnn(-c2cc(Nc3ncc(F)c(N[C@H]4C[C@@H]5CCC(=O)N5C(C)(C)C4)n3)c(F)cc2C2CC2)c1=O [Compound 33, 1-(5-(5-fluoro-4-(hexahydro-5,5-dimethylindolizin-3(5H)-one-7-ylamino)pyrimidin-2-ylamino)-2-cyclopropyl-4-fluorophenyl)-4-methyl-1H-tetrazol-5(4H)-one formate] was run?
**A.** 1000 to 10000 nM

**Q.** With CC1CN(c2ccc(Nc3ncc(F)c(N[C@H]4CCN5[C@@H](CCC5(C)C)C4)n3)cc2OC(F)F)CC(C)O1 (stereo partly drawn) [Compound 300, N2-(3-(Difluoromethoxy)-4-(2,6-dimethylmorpholino)phenyl)-N4-((7S,8aS)-3,3-dimethyloctahydroindolizin-7-yl)-5-fluoropyrimidine-2,4-diamine] as the compound, how does the EC50 (Homo sapiens, T-cell, 24 h) read?
**A.** 100 to 500 nM

**Q.** For CC(O)COc1ccc(Nc2ncc(F)c(N[C@@H]3C[C@@H]4CCCN4C(C)(C)C3)n2)cc1C#N (stereo partly drawn) [Compound 201, 5-((4-(((7R,8aS)-5,5-dimethyloctahydroindolizin-7-yl)amino)-5-fluoropyrimidin-2-yl)amino)-2-(2-hydroxypropoxy)benzonitrile], which EC50 (Homo sapiens, T-cell, 24 h) is on record?
**A.** 100 to 500 nM

**Q.** For Cn1nc2n(c1=O)-c1cc(Nc3ncc(F)c(N[C@@H]4C[C@@H]5CCCN5C(C)(C)C4)n3)ccc1OC2(CO)CO [Compound 288, 5-fluoro-N2-(1H-2,4-dihydron-4,4-di(hydroxymethyl)-2-methyl-[1,2,4]triazolo[3,4-c][1,4]benzoxazin-1-one-8-yl)-N4-((7R,8aS)-octahydro-5,5-dimethylindolizin-7-yl)pyrimidine-2,4-diamine], which EC50 (Homo sapiens, T-cell, 24 h) is on record?
**A.** 1000 to 10000 nM

**Q.** Which EC50 (Homo sapiens, T-cell, 24 h) does the source give for CC1(C)CC(Nc2nc(Nc3cc(-n4cnnn4)c(C4CC4)cc3F)ncc2F)CC2CCCN21 (single isomer, unassigned) [Compound 54, N^2-(4-cyclopropyl-2-fluoro-5-(1H-tetrazol-1-yl)phenyl)-5-fluoro-N^4-(octahydro-5,5-dimethylindolizin-7-yl)pyrimidine-2,4-diamine] here?
**A.** < 100 nM

**Q.** How did the EC50 (Homo sapiens, T-cell, 24 h) turn out when Cn1nnn(-c2cc(Nc3ncc(C#N)c(N[C@@H]4C[C@@H]5CCCN5C(C)(C)C4)n3)c(F)cc2O[C@H]2CCOC2)c1=O [Compound 112] was run?
**A.** 100 to 500 nM
